The values that follow are results of earlier work, collected in US20090221688A1, “PHARMACEUTICAL COMPOSITIONS CONTAINING DOCETAXEL AND A DEGRADATION INHIBITOR AND A PROCESS FOR OBTAINING THE SAME” (Quiral Quimica DO Brasil S.A., priority 2006, published 2009).

The data set concerns the target T1, recombinant human cytochrome P450 1B1 (hCYP1B1) (Homo sapiens, UniProt Q16678).
T1 sequence (Q16678 1-543): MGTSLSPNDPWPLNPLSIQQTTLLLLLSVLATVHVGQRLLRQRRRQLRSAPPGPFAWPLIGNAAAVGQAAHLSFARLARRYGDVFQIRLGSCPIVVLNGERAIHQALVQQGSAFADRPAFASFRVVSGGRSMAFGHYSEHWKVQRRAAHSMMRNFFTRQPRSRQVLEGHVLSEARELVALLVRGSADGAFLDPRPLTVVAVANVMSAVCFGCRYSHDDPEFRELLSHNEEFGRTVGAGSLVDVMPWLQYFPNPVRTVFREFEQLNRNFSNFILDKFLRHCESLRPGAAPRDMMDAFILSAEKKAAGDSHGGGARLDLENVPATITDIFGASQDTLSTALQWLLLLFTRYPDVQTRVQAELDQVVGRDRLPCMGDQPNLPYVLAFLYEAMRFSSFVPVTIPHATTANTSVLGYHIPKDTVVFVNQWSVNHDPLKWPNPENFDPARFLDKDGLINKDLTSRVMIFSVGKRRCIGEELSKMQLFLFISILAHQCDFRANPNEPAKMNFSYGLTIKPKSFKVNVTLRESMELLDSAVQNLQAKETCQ

Consider `CC(=O)O[C@@]12COC1C[C@@H](O)[C@@]1(C)C(=O)[C@H](O)C3=C(C)[C@@H](OC(=O)[C@H](O)[C@@H](NC(=O)OC(C)(C)C)c4ccccc4)C[C@@](O)([C@@H](OC(=O)c4ccccc4)[C@@H]12)C3(C)C` (stereo partly drawn) [7-epi-docetaxel (II), 4-acetoxy-2-α-benzoyloxy-5β-20-epoxy-1,7-α-10-β-trihydroxy-9-oxo-tax-11-en-13α-il (2R,3S) 3-tert-butoxycarbonylamino-2-hydroxy-3-phenylpropionate ester], for which the “Increase of the activity of hCYP1B1” value (concentration of 10 μM) is reported as “more than 7 fold”. On to `CC(=O)O[C@@]12COC1C[C@H](O)[C@@]1(C)C(=O)[C@H](O)C3=C(C)[C@@H](OC(=O)[C@H](O)[C@@H](NC(=O)OC(C)(C)C)c4ccccc4)C[C@@](O)([C@@H](OC(=O)c4ccccc4)[C@@H]12)C3(C)C` (stereo partly drawn) [docetaxel, 4-acetoxy-2α-benzoyloxy-5β-20-epoxy-1,7-β-10-β-trihydroxy-9-oxo-tax-11-en-13α-il (2R,3S) 3-tert-butoxycarbonylamino-2-hydroxy-3-phenylpropionate ester], for which the “Metabolism by hCYP1B1 in vitro” value (EROD activity as a measure) was “not metabolized”.
